Experimental findings from US20190127354A1, “2,4,6,7-TETRASUBSTITUTED QUINOLINE COMPOUNDS AS INHIBITORS OF DNA […]” (FUNDACIÓN PARA LA INVESTIGACIÓN MÉDICA APLICADA, priority 2015, published 2019) are described below.

One assay concerns the target T1, human DNMT1 (Homo sapiens, UniProt P26358).
T1 construct: purchased Reaction Biology Corp. DMT-21-124
Put plainly: DNMT1 enzyme activity assay (TR-FRET, EPIgeneous methyltransferase assay). It is filed as biochemical. As to conditions: human DNMT1, 15 minutes at 37° C. Here is the method: DNMT1 Enzyme Activity Assay
The biochemical assay to measure DNMT1 enzyme activity relies on time-resolved fluorescence energy transfer (TR-FRET) between lumi4-Tb (donor) and d2 (acceptor) using the EPIgeneous methyltransferase assay (CisBio Cat#62SAHPEB). […] TR-FRET signal is inversely proportional to the concentration of SAH, product of DNMT1 enzyme activity, in the sample. The human DNMT1 was obtained from Reaction Biology Corp. (Cat# DMT-21-124).
Enzyme activity assay was carried out in a white 384-well plate in a final volume of 20 μl, as follow: • 4 μl of vehicle or studied compound 2.5× concentrated prepared in assay buffer (50 mM Tris-HCl, 1 mM EDTA, 1 mM DTT, 0.1% Triton X-100, 5% glycerol pH 7.5). Final percentage of DMSO was 0.5%. • 2 μl of 1 nM DNMT1 enzyme diluted in assay buffer.
For each well, fluorescence was measured at 620 nm and 665 nm. A ratio (665 nm/620 nm) was then calculated in order to minimize medium interferences. Positive control was obtained in the presence of the vehicle of the compounds. Calculated IC50 values were determined using GraphPrism using 4-parameters inhibition curve.
(In general: In TR-FRET formats the signal depends on donor and acceptor labels being close together.)

The target of another assay is T2, human G9a enzyme (Homo sapiens, UniProt Q96KQ7).
T2 construct: purchased BPS Biosciences 51001; host or cells: baculovirus infected Sf9 cells
T2 sequence (Q96KQ7 1-1210): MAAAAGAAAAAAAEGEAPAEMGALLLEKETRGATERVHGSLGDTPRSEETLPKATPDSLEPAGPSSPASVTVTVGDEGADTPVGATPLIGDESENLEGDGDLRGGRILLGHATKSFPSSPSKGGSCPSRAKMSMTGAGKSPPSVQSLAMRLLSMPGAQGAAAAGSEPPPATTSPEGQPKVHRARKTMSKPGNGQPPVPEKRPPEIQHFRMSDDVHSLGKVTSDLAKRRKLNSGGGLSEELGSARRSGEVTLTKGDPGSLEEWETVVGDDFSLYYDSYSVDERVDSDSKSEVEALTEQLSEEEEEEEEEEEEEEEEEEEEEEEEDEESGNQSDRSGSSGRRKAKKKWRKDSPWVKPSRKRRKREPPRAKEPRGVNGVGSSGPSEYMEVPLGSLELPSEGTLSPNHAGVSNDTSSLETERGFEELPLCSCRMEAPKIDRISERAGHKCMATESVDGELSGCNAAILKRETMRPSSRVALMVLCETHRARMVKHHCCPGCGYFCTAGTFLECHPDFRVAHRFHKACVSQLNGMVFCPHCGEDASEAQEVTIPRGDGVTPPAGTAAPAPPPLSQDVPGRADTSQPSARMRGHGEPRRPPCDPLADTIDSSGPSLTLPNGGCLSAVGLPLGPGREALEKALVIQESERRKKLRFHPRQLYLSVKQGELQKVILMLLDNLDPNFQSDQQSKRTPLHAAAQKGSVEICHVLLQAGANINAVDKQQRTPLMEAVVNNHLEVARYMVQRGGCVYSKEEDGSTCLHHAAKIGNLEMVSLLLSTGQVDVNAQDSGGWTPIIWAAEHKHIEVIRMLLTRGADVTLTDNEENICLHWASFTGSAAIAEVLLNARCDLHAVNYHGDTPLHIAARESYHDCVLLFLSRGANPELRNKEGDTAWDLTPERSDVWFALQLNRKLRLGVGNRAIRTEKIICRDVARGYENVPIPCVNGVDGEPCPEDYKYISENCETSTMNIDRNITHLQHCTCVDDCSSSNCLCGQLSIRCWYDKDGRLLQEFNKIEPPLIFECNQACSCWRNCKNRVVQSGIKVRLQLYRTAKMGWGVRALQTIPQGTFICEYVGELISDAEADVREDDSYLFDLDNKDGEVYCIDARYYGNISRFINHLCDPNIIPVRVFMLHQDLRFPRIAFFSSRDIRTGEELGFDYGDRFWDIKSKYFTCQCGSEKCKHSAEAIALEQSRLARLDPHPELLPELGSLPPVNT
Put plainly: G9a enzyme activity assay (TR-FRET). It is filed as biochemical. Particulars: 1 hour at room temperature. Here is the method:
G9a Enzyme Activity Assay
The biochemical assay to measure G9a enzyme activity relies on time-resolved fluorescence energy transfer (TR-FRET) between europium cryptate (donor) and XL665 (acceptor). […] The human G9a enzyme expressed in a baculovirus infected Sf9 cell expression system was obtained from BPS Biosciences (Cat. #51001). Enzyme activity assay was carried out in a white 384-well plate in a final volume of 20 μl, as follow: • 4 μl of vehicle or studied compound 2.5× concentrated prepared in assay buffer (50 mM Tris-HCl, 10 mM NaCl, 4 mM DTT, 0.01% Tween-20 pH9). Final percentage of DMSO was 0.5%. • 2 μl of 1 nM G9a enzyme diluted in assay buffer. […] Final concentration 150 nM. • Then, add 5 μl of streptavidin XL665 beads. Final concentration of 16 μM. • Read the plate after 1 hour of incubation at room temperature.
For each well, fluorescence was measured at 620 nm and 665 nm. A ratio (665 nm/620 nm) was then calculated in order to minimize medium interferences. Positive control was obtained in the presence of the vehicle of the compounds. Negative control was obtained in the absence of G9a enzyme activity. Calculated IC50 values were determined using GraphPrism using 4-parameters inhibition curve.

Each structure is given as a SMILES string. A value given as a limit tells only on which side of the number the result lay.

T1 sequence (P26358 whole entry): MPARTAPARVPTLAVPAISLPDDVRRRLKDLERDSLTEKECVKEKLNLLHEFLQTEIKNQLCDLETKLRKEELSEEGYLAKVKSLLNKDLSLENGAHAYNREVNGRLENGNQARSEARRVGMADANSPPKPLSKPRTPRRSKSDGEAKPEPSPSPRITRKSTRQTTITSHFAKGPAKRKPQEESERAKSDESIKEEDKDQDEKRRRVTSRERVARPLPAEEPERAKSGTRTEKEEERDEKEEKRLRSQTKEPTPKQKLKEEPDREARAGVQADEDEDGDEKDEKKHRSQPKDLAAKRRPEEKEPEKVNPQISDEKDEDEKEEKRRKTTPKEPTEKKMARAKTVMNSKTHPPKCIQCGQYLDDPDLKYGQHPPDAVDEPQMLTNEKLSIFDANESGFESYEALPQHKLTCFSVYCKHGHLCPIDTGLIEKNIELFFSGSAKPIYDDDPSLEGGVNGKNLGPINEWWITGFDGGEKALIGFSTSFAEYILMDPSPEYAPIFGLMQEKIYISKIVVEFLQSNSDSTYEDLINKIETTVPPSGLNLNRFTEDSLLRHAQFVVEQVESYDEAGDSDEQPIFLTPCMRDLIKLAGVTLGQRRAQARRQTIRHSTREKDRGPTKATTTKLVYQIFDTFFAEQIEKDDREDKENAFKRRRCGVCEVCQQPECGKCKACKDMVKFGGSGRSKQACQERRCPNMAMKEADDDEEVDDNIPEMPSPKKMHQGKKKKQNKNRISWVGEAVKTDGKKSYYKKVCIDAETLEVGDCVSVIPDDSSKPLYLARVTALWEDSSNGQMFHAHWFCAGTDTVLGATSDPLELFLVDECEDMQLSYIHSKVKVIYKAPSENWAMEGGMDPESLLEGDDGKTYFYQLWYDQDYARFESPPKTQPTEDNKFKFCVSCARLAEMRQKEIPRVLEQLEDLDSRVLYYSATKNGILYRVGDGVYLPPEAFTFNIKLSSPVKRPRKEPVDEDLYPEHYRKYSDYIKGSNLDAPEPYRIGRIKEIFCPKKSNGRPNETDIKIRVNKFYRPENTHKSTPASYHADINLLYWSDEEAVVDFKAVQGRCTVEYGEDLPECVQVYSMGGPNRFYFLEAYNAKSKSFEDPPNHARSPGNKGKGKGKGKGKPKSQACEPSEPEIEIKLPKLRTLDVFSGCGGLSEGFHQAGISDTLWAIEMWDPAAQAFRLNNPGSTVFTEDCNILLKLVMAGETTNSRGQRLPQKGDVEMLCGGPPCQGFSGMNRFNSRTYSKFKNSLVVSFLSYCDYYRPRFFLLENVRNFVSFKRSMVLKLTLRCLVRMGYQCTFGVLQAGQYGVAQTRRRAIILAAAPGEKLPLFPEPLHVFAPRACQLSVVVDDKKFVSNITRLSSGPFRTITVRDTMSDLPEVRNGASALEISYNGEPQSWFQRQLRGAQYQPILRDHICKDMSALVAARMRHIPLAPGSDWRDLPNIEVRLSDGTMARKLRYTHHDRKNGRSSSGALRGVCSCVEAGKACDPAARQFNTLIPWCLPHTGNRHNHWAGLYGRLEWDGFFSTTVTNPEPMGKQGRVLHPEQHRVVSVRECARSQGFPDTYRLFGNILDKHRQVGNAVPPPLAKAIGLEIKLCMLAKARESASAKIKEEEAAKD

`COc1cc2c(N(C)C3CCN(C)CC3)cc(-c3cc(C)oc3C)nc2cc1OCCCN1CCCC1` [Compound 1-05]: the 50% inhibitory concentration (IC50) against human DNMT1 and against human G9a enzyme was 1 to 10 µM throughout.
As for `COc1cc2c(N(C)CC3CCN(C)CC3)cc(-c3ccc(C)[nH]3)nc2cc1OCCCN1CCCC1` [Compound 1-06], the IC50 against human DNMT1 and on human G9a enzyme was 0.1 to 0.5 µM in each case.
In the case of `COc1cc2c(N(C)C3CCN(C)CC3)cc(-c3ccc(C)[nH]3)nc2cc1OCCCN1CCCC1` [Compound 1-07], the values for the IC50 on human DNMT1 and against human G9a enzyme were 0.5 to 1 µM and below 0.1 µM, respectively.
In the same order, the values of `COc1cc2c(N(C)C3CC4(CCN(C)CC4)C3)cc(-c3ccc(C)o3)nc2cc1OCC1CCN(C)CC1` [Compound 1-08, 6-methoxy-N-methyl-N-(7-methyl-7-azaspiro[3.5]nonan-2-yl)-2-(5-methyl-2-furyl)-7-[(1-methyl-4-piperidyl)methoxy]quinolin-4-amine] are 1 to 10 µM and above 10 µM.
For `COc1cc2c(N(C)C3CC4(CCN(C(C)C)CC4)C3)cc(-c3ccc(C)o3)nc2cc1OCCCN1CCCC1` [Compound 1-09], in that order: 0.5 to 1 µM and 0.5 to 1 µM.
In the same order, the values of `CCc1ccc(-c2cc(N(C)CC3CCN(C)CC3)c3cc(OC)c(OC4CC5(C4)CN(C)C5)cc3n2)o1` [Compound 1-10] are 1 to 10 µM and above 10 µM.
Take `COc1cc2c(N(C)C)cc(-c3ccc(C)[nH]3)nc2cc1OCCCN1CCCC1` [Compound 1-11]: the IC50 – broadly, the concentration needed to halve the response being measured – on human DNMT1 is 1 to 10 µM; against human G9a enzyme, 0.1 to 0.5 µM.
In the same order, the values of `COc1cc2c(N(C)C)cc(-c3ccc(C)o3)nc2cc1OCCCN1CCCC1` [Compound 1-12] are 1 to 10 µM and 1 to 10 µM.
For `COc1cc2c(N(C)C3CC4(CCN(C(C)C)CC4)C3)cc(-c3ccc(C)o3)nc2cc1OC1CC2(C1)CN(C)C2` (centres unmarked) [Compound 1-14], in that order: 1 to 10 µM and above 10 µM.
Turning to `COc1cc2c(N(C)C3CC4(CCN(C(C)C)CC4)C3)cc(-c3ccc(C)o3)nc2cc1OC1CC2(C1)CN(CC#N)C2` (centres unmarked) [Compound 1-15], the half-inhibitory concentration (IC50) is 1 to 10 µM against human DNMT1 and above 10 µM at human G9a enzyme.
For `CCc1ccc(-c2cc(N(C)CC3CCN(C)CC3)c3cc(OC)c(OCC4CCN(C)CC4)cc3n2)o1` [Compound 1-16], in that order: 1 to 10 µM and above 10 µM.
For `COc1cc2c(N(C)C3CCC4(CC3)CN(C)C4)cc(-c3ccc(C)o3)nc2cc1OCCCN1CCCC1` [Compound 1-18], in that order: 1 to 10 µM and 1 to 10 µM.
For `COc1cc2c(N(C)CC3CCN(C)CC3)cc(-c3cc(C)oc3C)nc2cc1OCCCN1CCCC1` [Compound 1-19], in that order: 0.5 to 1 µM and 0.5 to 1 µM.
For `COc1cc2c(N(C)CC3CCN(C)CC3)cc(-c3ccc(C)o3)nc2cc1OCCCN1CCC(F)C1` (centres unmarked) [Compound 1-20], the IC50 at human DNMT1 is 1 to 10 µM; against human G9a enzyme, above 10 µM.
In the same order, the values of `COc1cc2c(N(C)CC3CCN(C)CC3)cc(C3CCCCC3)nc2cc1OCCCN1CCCC1` [Compound 1-21, 2-cyclohexyl-6-methoxy-N-methyl-N-[(1-methyl-4-piperidyl)methyl]-7-(3-pyrrolidin-1-ylpropoxy)quinolin-4-amine] are 1 to 10 µM and 0.1 to 0.5 µM.
For `COc1cc2c(N(C)CC3CCN(C)CC3)cc(-c3ccccc3)nc2cc1OCCCN1CCCC1` [Compound 1-22], in that order: 0.5 to 1 µM and 1 to 10 µM.
For `COc1cc2c(N(C)CC3CCNCC3)cc(-c3ccccc3)nc2cc1OCCCN1CCCC1` [Compound 1-23, 6-methoxy-N-methyl-2-phenyl-N-(4-piperidylmethyl)-7-(3-pyrrolidin-1-ylpropoxy)quinolin-4-amine], in that order: 0.5 to 1 µM and 0.1 to 0.5 µM.
Turning to `CNC1CCN(c2cc(-c3ccc(C)o3)nc3cc(OCCCN4CCCC4)c(OC)cc23)CC1` [Compound 2-01, 1-[6-methoxy-2-(5-methyl-2-furyl)-7-(3-pyrrolidin-1-ylpropoxy)-4-quinolyl]-N-methyl-piperidin-4-amine], the IC50 on human DNMT1 was in the range of 0.5 to 1 µM; on human G9a enzyme, 1 to 10 µM.
With `COc1cc2c(N3CCC(CO)CC3)cc(-c3ccc(C)o3)nc2cc1OCCCN1CCCC1` [Compound 2-02], the IC50 on human DNMT1 and at human G9a enzyme was 1 to 10 µM throughout.
For the molecule `CNC1CCN(c2cc(-c3ccc(C)[nH]3)nc3cc(OCCCN4CCCC4)c(OC)cc23)CC1` [Compound 2-03], the IC50 fell in the range of 0.5 to 1 µM against human DNMT1 and 0.1 to 0.5 µM against human G9a enzyme.
In the same order, the values of `CNC1CCN(c2cc(-c3ccc4occc4c3)nc3cc(OCCCN4CCCC4)c(OC)cc23)CC1` [Compound 2-04] are 1 to 10 µM and above 10 µM.
For `COc1cc2c(N3CCC(N(C)C)CC3)cc(-c3ccc(C)[nH]3)nc2cc1OCCCN1CCCC1` [Compound 2-05, 1-[6-methoxy-2-(5-methyl-1H-pyrrol-2-yl)-7-(3-pyrrolidin-1-ylpropoxy)-4-quinolyl]-N,N-dimethyl-piperidin-4-amine], in that order: 0.1 to 0.5 µM and 0.1 to 0.5 µM.
In the same order, the values of `COc1cc2c(N3CCC(C(C)(C)N)CC3)cc(-c3ccc(C)o3)nc2cc1OCCCN1CCCC1` [Compound 2-07] are 1 to 10 µM and 0.5 to 1 µM.
With `CNCC1CCN(c2cc(C3CCCCC3)nc3cc(OCCCN4CCCC4)c(OC)cc23)CC1` [Compound 2-08, 1-[1-[2-cyclohexyl-6-methoxy-7-(3-pyrrolidin-1-ylpropoxy)-4-quinolyl]-4-piperidyl]-N-methyl-methanamine], the IC50 is 1 to 10 µM against human DNMT1 and below 0.1 µM at human G9a enzyme.
In the same order, the values of `CNCC1CCN(c2cc(-c3ccccc3)nc3cc(OCCCN4CCCC4)c(OC)cc23)CC1` [Compound 2-09] are 1 to 10 µM and 0.1 to 0.5 µM.
For `COc1cc2c(OCC3CCN(C)CC3)cc(-c3ccc(C)o3)nc2cc1OCCCN1CCCC1` [Compound 3-02], in that order: 0.5 to 1 µM and 1 to 10 µM.
Regarding `COc1cc2c(OCC3CCN(C)CC3)cc(-c3ccc(C)[nH]3)nc2cc1OCCCN1CCCC1` [Compound 3-03], the IC50 was 0.5 to 1 µM against human DNMT1 and 0.1 to 0.5 µM at human G9a enzyme.
For `COc1cc2c(OC3CCN(C)CC3)cc(-c3ccc(C)o3)nc2cc1OC1CC2(C1)CN(C)C2` [Compound 3-06, 6-methoxy-7-[(2-methyl-2-azaspiro[3.3]heptan-6-yl)oxy]-2-(5-methyl-2-furyl)-4-[(1-methyl-4-piperidyl)oxy]quinoline], in that order: 1 to 10 µM and above 10 µM.
